Assay results taken from publication PMC3038857, “Using Nuclear Receptor Activity to Stratify Hepatocarcinogens” (PLoS ONE, 2011).
Like-named read-outs stand apart in the source and are kept apart here.

Legend:
CYP3A4 = assay: CLZD_CYP3A4: Change in expression of CYP3A4 (primary human hepatocytes); format: cell-based; details: 24 hr
Method: (§1) This is a collection of multiplexed gene expression assays focused on Phase I and II xenobiotic metabolizing enzymes and transporters. Human primary cell cultures were treated with chemicals at 5 concentrations (0.004-40 [drawing 42] M) for 6, 24 and 48 hr. Concentration- and time-response profiles of chemicals were measured by the expression of key nuclear receptor target genes, activities of CYP1A enzymes (EROD), and cell morphology. Fourteen gene targets were monitored by quantitative nuclease protection assay including: six representative cytochrome P-450 genes, four hepatic transporters, three Phase II conjugating enzymes, and one endogenous metabolism gene involved in cholesterol synthesis. The target genes associated with nuclear receptor pathways are as follows: [drawing 43] and [drawing 44] with [drawing 45]; [drawing 46] , [drawing 47] , [drawing 48] , [drawing 49] , [drawing 50] and [drawing 51] with [drawing 52]; [drawing 53] , [drawing 54] , [drawing 55] and [drawing 56] with [drawing 57]; [drawing 58] with [drawing 59]; and [drawing 60] with [drawing 61] . Assays were run in primary human hepatocyte cultures by CellzDirect Invitrogen Inc. (Durham, NC), in collaboration with EPA.
(§2) Multiplexed Gene Expression in Human Primary Hepatocytes: This is a collection of multiplexed gene expression assays focused on Phase I and II metabolic enzymes and transporters. […] Fourteen gene targets were monitored by quantitative nuclease protection assay: six representative cytochrome P450 genes, four hepatic transporters, three Phase II conjugating enzymes, and one endogenous metabolism gene involved in cholesterol synthesis. Cells were exposed at 5 concentrations (0.004-40 µM) for 6, 24 or 48 hr. Gene targets are sentinels for five nuclear receptor signaling pathways: AhR, CAR, PXR, FXR, and PPARα. All gene are associated with nuclear receptor pathways: CYP1A1 and CYP1A2 with AHR; ABCB1, ABCG2, CYP2B6, CYP2C9, CYP2C19 and UGT1A1 with CAR; CYP3A4, GSTA2, SLCO1B1 and SULT2A1 with PXR; HMGCS2 with PPARA; and ABCB11 with FXR. […] Detailed description of the methods, data and analysis methods for this dataset will be presented in a separate publication.

Rat Liver [1] = details: ref ToxRefDB, cited from earlier work
Rat Liver [2] = details: ref ToxRefDB, cited from earlier work; remark: listed apart in the source
Mouse Liver [3] = details: ref ToxRefDB, cited from earlier work
CYP2B6 = assay: CLZD_CYP2B6: Change in expression of CYP2B6 (primary human hepatocytes); format: cell-based; details: 24 hr
Outline: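 Chemicals are tested in human hepatocyte primary cultures over 0.004-40 µM (5 concentrations) for 6, 24 or 48 hr, and concentration- and time-dependent transcript changes are read by quantitative nuclease protection assay.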

Mouse Liver [4] = details: ref ToxRefDB, cited from earlier work; remark: listed apart in the source
Mouse Liver [5] = details: ref ToxRefDB, cited from earlier work; remark: listed apart in the source
Rat Liver [6] = details: ref ToxRefDB, cited from earlier work; remark: listed apart in the source
PXR (NR1I2) [7] = target: T1, PXR (NR1I2) (Homo sapiens, UniProt O75469); assay: ATG_PXRE_CIS: Factorial reporter gene assay (HepG2); format: cell-based; parameters: endogenous in cells; host or cells: HepG2; details: HepG2
T1 sequence (O75469 1-434): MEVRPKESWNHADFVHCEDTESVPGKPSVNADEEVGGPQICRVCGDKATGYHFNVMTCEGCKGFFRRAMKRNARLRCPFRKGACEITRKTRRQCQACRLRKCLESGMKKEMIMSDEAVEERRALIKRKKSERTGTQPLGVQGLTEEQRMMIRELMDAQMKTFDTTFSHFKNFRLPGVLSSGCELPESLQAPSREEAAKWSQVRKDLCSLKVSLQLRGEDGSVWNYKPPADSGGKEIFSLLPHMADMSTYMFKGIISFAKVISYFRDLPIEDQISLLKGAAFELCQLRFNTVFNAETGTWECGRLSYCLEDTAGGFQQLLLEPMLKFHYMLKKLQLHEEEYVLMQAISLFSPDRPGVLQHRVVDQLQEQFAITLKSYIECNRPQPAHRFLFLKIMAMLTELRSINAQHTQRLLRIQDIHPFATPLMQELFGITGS
Outline: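 Each chemical received seven doses, the first at its MTC, then successive three-fold dilutions. Host cells: HepG2 carrying either cis (PXRE, 48 sites) or trans one-hybrid (ERRg, FXR, PPARg; 25 units) reporter libraries.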

CYP1A1 = assay: CLZD_CYP1A1: Change in expression of CYP1A1 (primary human hepatocytes); format: cell-based; details: 24 hr
Method: as §1, §2

CYP1A2 = assay: CLZD_CYP1A2: Change in expression of CYP1A2 (primary human hepatocytes); format: cell-based; details: 24 hr
Method: as §1, §2

[8] = target: T2, PPARG (peroxisome proliferator-activated receptor gamma) (Homo sapiens, UniProt P37231); assay: ATG_PPARg_TRANS: Factorial reporter gene assay (HepG2); format: cell-based; details: HepG2
T2 construct: expressed in transfected cells; host or cells: HepG2
T2 sequence (P37231 1-505): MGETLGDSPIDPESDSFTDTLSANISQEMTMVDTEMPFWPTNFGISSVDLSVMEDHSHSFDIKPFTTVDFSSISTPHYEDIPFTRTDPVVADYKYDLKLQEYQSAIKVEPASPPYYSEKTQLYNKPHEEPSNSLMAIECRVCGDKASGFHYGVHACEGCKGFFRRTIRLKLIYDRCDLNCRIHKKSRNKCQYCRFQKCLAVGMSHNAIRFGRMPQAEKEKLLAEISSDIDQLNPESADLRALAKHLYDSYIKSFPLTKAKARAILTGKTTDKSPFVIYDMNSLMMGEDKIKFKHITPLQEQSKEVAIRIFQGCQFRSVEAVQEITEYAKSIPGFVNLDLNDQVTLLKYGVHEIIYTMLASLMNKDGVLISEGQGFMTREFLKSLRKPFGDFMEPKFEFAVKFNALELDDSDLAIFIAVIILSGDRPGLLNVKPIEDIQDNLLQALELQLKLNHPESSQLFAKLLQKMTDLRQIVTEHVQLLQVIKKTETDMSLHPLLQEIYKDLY
Method: (§3) A multiple reporter transcription unit (MRTU) library consisting of 48 transcription factor binding sites was transfected into the HepG2 human liver hepatoma cell line. In addition to the cis-acting reporter genes (CIS), a modification of the approach was used to generate a trans-system (TRANS) with a mammalian one-hybrid assay consisting of an additional 25 MRTU library reporting the activity of nuclear receptor super-family members. […] These assays were performed by Attagene Inc. (Morrisville NC) under contract to EPA.
(§4) In addition to the cis-acting reporter genes (CIS), a modification of the approach was used to generate a trans-system (TRANS) with a mammalian one-hybrid assay consisting of an additional 25 MRTU library reporting the activity of nuclear receptor super-family members. […] Chemicals were then tested in the CIS and TRANS assays at seven concentrations starting at the MTC and followed by three-fold serial dilutions. These assays were performed by Attagene Inc. (Morrisville NC) under contract to EPA. Detailed description of the methods, data and analysis methods for this dataset will be presented in a separate publication.

PXR (NR1I2) [9] = target: T1, PXR (NR1I2); assay: ATG_PXR_TRANS: Factorial reporter gene assay (HepG2); format: cell-based; parameters: endogenous in cells; host or cells: HepG2; details: HepG2
Method: as §3, §4

[10] = rat chronic study, liver, coded 6 / 0, code not explained in table
[11] = mouse chronic study, liver, coded 6 / Inf, code not explained in table

Row | SMILES | CLZD_CYP3A4_24 (CYP3A4) | CHR_Rat_Liver_3_NeoplasticLesion (Rat Liver [1]; rat, chronic study) | CHR_Rat_Liver_2_PreneoplasticLesion (Rat Liver [2]; rat, chronic study) | CHR_Mouse_Liver_1_AnyLesion (Mouse Liver [3]; mouse, chronic study) | CLZD_CYP2B6_24 (CYP2B6) | CHR_Mouse_Liver_2_PreneoplasticLesion (Mouse Liver [4]; mouse, chronic study) | CHR_Mouse_Liver_3_NeoplasticLesion (Mouse Liver [5]; mouse, chronic study) | CHR_Rat_Liver_1_AnyLesion (Rat Liver [6]; rat, chronic study) | ATG_PXRE_CIS (PXR (NR1I2) [7]) | CHR_Rat_Liver_3_NeoplasticLesion (Rat Liver [1]; [10]) | CHR_Rat_Liver_2_PreneoplasticLesion (Rat Liver [2]; [10]) | CHR_Mouse_Liver_1_AnyLesion (Mouse Liver [3]; [11]) | CHR_Mouse_Liver_2_PreneoplasticLesion (Mouse Liver [4]; [11]) | CHR_Mouse_Liver_3_NeoplasticLesion (Mouse Liver [5]; [11]) | CHR_Rat_Liver_1_AnyLesion (Rat Liver [6]; [10]) | other results
1 | CNC(=O)Oc1ccccc1OC(C)C [r263] | 5.055 | 0 | 0 | 6 | 5.434 | 6 | 6 | 0 |  |  |  |  |  |  |  | 
2 | COC(=O)c1ccccc1S(=O)(=O)NC(=O)Nc1nc(OC(F)F)cc(OC(F)F)n1 [r250] |  | 0 | 0 | 6 | 5.187 | 6 | 6 | 0 | 4.469 |  |  |  |  |  |  | 
3 | COC(=O)c1cccc(C)c1S(=O)(=O)NC(=O)Nc1nc(OCC(F)(F)F)nc(N(C)C)n1 [chemical 317] |  |  |  |  |  |  |  |  |  | 0 | 0 | 6 | 6 | 6 | 0 | 
4 | CNc1cnn(-c2cccc(C(F)(F)F)c2)c(=O)c1Cl [row 222] | 5.266 |  |  |  | 4.975 |  |  |  | 4.62 |  |  |  |  |  |  | CLZD_CYP1A1_24 (CYP1A1): 5.028; CHR_Mouse_Liver_1_AnyLesion (Mouse Liver [3]; chronic mouse study, liver): 6; CHR_Mouse_Liver_2_PreneoplasticLesion (Mouse Liver [4]; chronic mouse study, liver): 6; CLZD_CYP1A2_24 (CYP1A2): 4.939; CHR_Mouse_Liver_3_NeoplasticLesion (Mouse Liver [5]; chronic mouse study, liver): 6
5 | CC(C)(C)C(=O)C(Oc1ccc(Cl)cc1)n1cncn1 (centres unmarked) [chemical 304] |  |  |  |  |  |  |  |  |  | 0 | 0 | 6 | 6 | 6 | 6 | 
6 | CN1COCN(Cc2cnc(Cl)s2)/C1=N\[N+](=O)[O-] [chemical 296] |  |  |  |  |  |  |  |  |  | 0 | 0 | 6 | 6 | 6 | 6 | 
7 | CCCCOCCOCCOCc1cc2c(cc1CCC)OCO2 [r246] | 5.527 | 0 | 6 | 6 | 5.592 | 6 | 6 | 6 | 5.42 |  |  |  |  |  |  | ATG_PPARg_TRANS [8]: 4.602; CLZD_CYP1A2_24 (CYP1A2): 5.617; ATG_PXR_TRANS (PXR (NR1I2) [9]): 4.824
8 | CCCCNC(=O)OCC#CI [Dataset S3 row 7] |  |  |  |  |  |  |  |  |  |  |  |  |  |  |  | CHR_Rat_Liver_3_NeoplasticLesion (Rat Liver [1]; rat chronic study, liver, neoplastic lesion, coded 6 / 0, code not explained in the table): 0; CHR_Rat_Liver_2_PreneoplasticLesion (Rat Liver [2]; rat chronic study, liver, preneoplastic lesion, coded 6 / 0, code not explained in the table): 0; CHR_Mouse_Liver_1_AnyLesion (Mouse Liver [3]; mouse chronic study, liver, any lesion, coded 6 / Inf, code not explained in the table): 6; CHR_Mouse_Liver_2_PreneoplasticLesion (Mouse Liver [4]; mouse chronic study, liver, preneoplastic lesion, coded 6 / Inf, code not explained in the table): 6; CHR_Mouse_Liver_3_NeoplasticLesion (Mouse Liver [5]; mouse chronic study, liver, neoplastic lesion, coded 6 / Inf, code not explained in the table): 6; CHR_Rat_Liver_1_AnyLesion (Rat Liver [6]; rat chronic study, liver, any lesion, coded 6 / 0, code not explained in the table): 6
9 | Clc1cccc(C(Cl)(Cl)Cl)n1 [row 221] |  |  |  |  | 5.088 |  |  |  | 4.292 |  |  |  |  |  |  | CHR_Rat_Liver_3_NeoplasticLesion (Rat Liver [1]; chronic rat study, liver): 0; CHR_Rat_Liver_2_PreneoplasticLesion (Rat Liver [2]; chronic rat study, liver): 0; CHR_Mouse_Liver_1_AnyLesion (Mouse Liver [3]; chronic mouse study, liver): 6; CHR_Mouse_Liver_2_PreneoplasticLesion (Mouse Liver [4]; chronic mouse study, liver): 6; CHR_Mouse_Liver_3_NeoplasticLesion (Mouse Liver [5]; chronic mouse study, liver): 6; CHR_Rat_Liver_1_AnyLesion (Rat Liver [6]; chronic rat study, liver): 6
